Laboratory results taken from ChEMBL document CHEMBL5143620, “Discovery of tricyclic HIV-1 integrase-LEDGF/p75 allosteric inhibitors by intramolecular direct arylation reaction” (Bioorg Med Chem Lett, 2022).
Several values for one entry are separate records, joined by “and”; a condition that tells them apart may be missing. Equal entries are not always repeated.

How the values were obtained:
[1] = system: MT4; assay: Cytotoxicity against human MT4 cells assessed as reduction in cell viability by MTT assay; format: functional
[2] = system: Human immunodeficiency virus 1; assay: Antiviral activity against wild type HIV-1 infected in human MT4 cells assessed as inhibition of viral infection by MTT assay; format: functional, organism-based
[3] = system: Human immunodeficiency virus 1; assay: Antiviral activity against […] HIV-1 harboring T174I mutant infected in human MT4 cells assessed as inhibition of viral infection by MTT assay; format: functional, organism-based
[4] = Oral bioavailability in rat at 1 mg/kg; format: ADME, organism-based; settings: in vivo
[5] = Elimination half life in rat at 0.5 mg/kg, iv; format: ADME, organism-based; settings: in vivo, read-out: beta t1/2 (converted)
[6] = Metabolic stability in rat liver microsomes; format: ADME, Microsome
[7] = AUC in rat at 0.5 mg/kg, iv; format: ADME, organism-based; set-up: dose 0.5 mg/kg, route iv; settings: in vivo
[8] = Metabolic stability in human liver microsomes; format: ADME, Microsome
[9] = Human immunodeficiency virus 1, MT4

With Cc1ccc(-c2c(C)c3c(c(C)c2[C@H](OC(C)(C)C)C(=O)O)N(C)S(=O)(=O)c2ccccc2-3)cc1 the CC50 ([1]; Homo sapiens, MT4) was 19000 nM and the EC50 [2, 9] was 76 nM.
Molecule Cc1ccc(-c2c(C)c3c(c(C)c2[C@H](OC(C)(C)C)C(=O)O)N(S(C)(=O)=O)Cc2ccc(C)cc2-3)cc1 has a CC50 ([1]; Homo sapiens, MT4) of 13000 nM, an EC50 [3, 9] of 930 nM and an EC50 [2, 9] of 12 nM.
With Cc1c(-c2ccc3c(c2)CCCO3)c([C@H](OC(C)(C)C)C(=O)O)c(C)c2c1-c1c(F)cccc1CN2S(C)(=O)=O the CC50 ([1]; Homo sapiens, MT4) was 29000 nM, the EC50 [3, 9] was 170 nM and the EC50 [2, 9] was 6.2 nM.
Cc1ccc(-c2c(C)c3c(c(C)c2[C@H](OC(C)(C)C)C(=O)O)N(S(C)(=O)=O)Cc2cccnc2-3)cc1 showed a CC50 ([1]; Homo sapiens, MT4) of 70000 nM, an EC50 [3, 9] of 3200 nM and an EC50 [2, 9] of 23 nM.
Molecule Cc1ccc(-c2c(C)c3c(c(C)c2[C@H](OC(C)(C)C)C(=O)O)N(S(C)(=O)=O)Cc2ccc(F)cc2-3)cc1 has a CC50 ([1]; Homo sapiens, MT4) of 15000 nM, an EC50 [3, 9] of 1200 nM and an EC50 [2, 9] of 11 nM.
Molecule Cc1ccc(-c2c(C)c3c(c(C)c2[C@H](OC(C)(C)C)C(=O)O)N(S(C)(=O)=O)Cc2cccc(Cl)c2-3)cc1 has a CC50 ([1]; Homo sapiens, MT4) of 16000 nM, an EC50 [3, 9] of 540 nM and an EC50 [2, 9] of 15 nM.
Cc1ccc(-c2c(C)c3c(c(C)c2[C@H](OC(C)(C)C)C(=O)O)N(S(C)(=O)=O)Cc2ncccc2-3)cc1 gave a CC50 ([1]; Homo sapiens, MT4) of 61000 nM, an EC50 [3, 9] greater than 5000 nM and an EC50 [2, 9] of 58 nM.
In the case of Cc1ccc(-c2c([C@H](OC(C)(C)C)C(=O)O)c(C)c3[nH]c4ccccc4c3c2C)cc1, the CC50 ([1]; Homo sapiens, MT4) is reported as 13000 nM and the EC50 [2, 9] is reported as 310 nM.
In the case of Cc1ccc(-c2c(C)c3c(c(C)c2[C@H](OC(C)(C)C)C(=O)O)N(S(C)(=O)=O)Cc2c(F)cccc2-3)cc1, the CC50 ([1]; Homo sapiens, MT4) is reported as 24000 nM, the EC50 [3, 9] is reported as 510 nM and the EC50 [2, 9] is reported as 10 nM.
For Cc1ccc(-c2c(C)c3c(c(C)c2[C@H](OC(C)(C)C)C(=O)O)N(S(C)(=O)=O)Cc2cnccc2-3)cc1, the CC50 ([1]; Homo sapiens, MT4) was 65000 nM, the EC50 [3, 9] was greater than 5000 nM and the EC50 [2, 9] was 65 nM.
With Cc1ccc(-c2c(C)c3c(c(C)c2[C@H](OC(C)(C)C)C(=O)O)N(S(C)(=O)=O)Cc2cc(C#N)ccc2-3)cc1 the CC50 ([1]; Homo sapiens, MT4) was 35000 nM, the EC50 [3, 9] was 720 nM and the EC50 [2, 9] was 7.3 nM.
With Cc1ccc(-c2c([C@H](OC(C)(C)C)C(=O)O)c(C)c3c(c2C)c2ccccc2c(=O)n3C)cc1 the CC50 ([1]; Homo sapiens, MT4) was 25000 nM and the EC50 [2, 9] was 730 nM.
With Cc1ccc(-c2c(C)cc(N(Cc3ccccc3)S(C)(=O)=O)c(C)c2[C@H](OC(C)(C)C)C(=O)O)cc1 the CC50 ([1]; Homo sapiens, MT4) was 14000 nM and the EC50 [2, 9] was 56 nM.
For Cc1ccc(-c2c(C)c3c(c(C)c2[C@H](OC(C)(C)C)C(=O)O)N(S(C)(=O)=O)Cc2cccc(F)c2-3)c(C)c1, the CC50 [1] was 11000 nM, the CC50 ([1]; Homo sapiens, MT4) was 18000 nM and the EC50 [3, 9] was 1100 nM. For the same molecule, the EC50 ([3]; mt4) was 1500 nM and the EC50 ([2]; mt4) was 3.7 nM and 9.5 nM.
Cc1ccc(-c2c(C)c3c(c(C)c2[C@H](OC(C)(C)C)C(=O)O)N(S(C)(=O)=O)Cc2ccccc2-3)cc1 showed a CC50 ([1]; Homo sapiens, MT4) of 21000 nM, an EC50 [3, 9] of 810 nM and an EC50 [2, 9] of 11 nM.
In the case of COc1ccc(-c2c(C)c3c(c(C)c2[C@H](OC(C)(C)C)C(=O)O)N(S(C)(=O)=O)Cc2cccc(F)c2-3)cc1, the CC50 ([1]; Homo sapiens, MT4) is reported as 31000 nM, the EC50 [3, 9] is reported as 320 nM and the EC50 [2, 9] is reported as 6.4 nM.
With Cc1c(-c2ccc(Cl)cc2)c([C@H](OC(C)(C)C)C(=O)O)c(C)c2c1-c1c(F)cccc1CN2S(C)(=O)=O the CC50 ([1]; Homo sapiens, MT4) was 16000 nM, the EC50 [3, 9] was 340 nM and the EC50 [2, 9] was 8.6 nM.
In the case of Cc1c(-c2c(C)c3c(c(C)c2[C@H](OC(C)(C)C)C(=O)O)N(S(C)(=O)=O)Cc2cccc(F)c2-3)ccc2c1CCCO2, the CC50 [1] is reported as 22000 nM, the CC50 ([1]; Homo sapiens, MT4) is reported as 17000 nM and the EC50 ([3]; mt4) is reported as 48 nM and 420 nM. For the same molecule, the EC50 ([2]; mt4) was 1.9 nM and 6.7 nM.
Molecule Cc1ccc(-c2c(C)c3c(c(C)c2[C@H](OC(C)(C)C)C(=O)O)N(S(C)(=O)=O)Cc2cccc(F)c2-3)cc1 has a CC50 ([1]; Homo sapiens, MT4) of 17000 nM, an EC50 [3, 9] of 290 nM and an EC50 [2, 9] of 5.5 nM.
Work on Cc1ccc(-c2c(C)c3c(c(C)c2[C@H](OC(C)(C)C)C(=O)O)N(S(C)(=O)=O)Cc2ccncc2-3)cc1 yielded a CC50 ([1]; Homo sapiens, MT4) of 25000 nM, an EC50 [3, 9] greater than 5000 nM and an EC50 [2, 9] of 20 nM.
Cc1ccc(-c2c(C)c3c(c(C)c2[C@H](OC(C)(C)C)C(=O)O)N(S(C)(=O)=O)Cc2cccc(F)c2-3)c(O)c1 gave a bioavailability [4] of 17.8%, a half-life [5] of 3.5 h and a Stability [6] of 60.7%. For the same molecule, the AUC [7] was 21.2 ng·h/mL, the CC50 [1] was 59000 nM and 14000 nM and the Stability [8] was 76.3%. The EC50 ([2]; mt4) was 4.6 nM and 21 nM.
Work on Cc1ccc(-c2c(C)c3c(c(C)c2[C@H](OC(C)(C)C)C(=O)O)N(C)Cc2ccccc2-3)cc1 yielded a CC50 ([1]; Homo sapiens, MT4) of 8400 nM and an EC50 [2, 9] of 120 nM.
Cc1ccc(-c2c(C)c3c(c(C)c2[C@H](OC(C)(C)C)C(=O)O)N(S(C)(=O)=O)Cc2cc(C)ccc2-3)cc1 gave a CC50 ([1]; Homo sapiens, MT4) of 14000 nM, an EC50 [3, 9] of 440 nM and an EC50 [2, 9] of 4.9 nM.
With CC(=O)N1Cc2ccccc2-c2c(C)c(-c3ccc(C)cc3)c([C@H](OC(C)(C)C)C(=O)O)c(C)c21 the CC50 ([1]; Homo sapiens, MT4) was 27000 nM and the EC50 [2, 9] was 30 nM.
In the case of Cc1ccc(-c2c(C)c3c(c(C)c2[C@H](OC(C)(C)C)C(=O)O)N(S(C)(=O)=O)Cc2cc(Cl)ccc2-3)cc1, the CC50 ([1]; Homo sapiens, MT4) is reported as 13000 nM, the EC50 [3, 9] is reported as 330 nM and the EC50 [2, 9] is reported as 3.9 nM.
COc1ccc2c(c1)CN(S(C)(=O)=O)c1c(C)c([C@H](OC(C)(C)C)C(=O)O)c(-c3ccc(C)cc3)c(C)c1-2 showed a CC50 ([1]; Homo sapiens, MT4) of 17000 nM, an EC50 [3, 9] of 270 nM and an EC50 [2, 9] of 2.9 nM.
With Cc1ccc(-c2c(C)c3c(c(C)c2[C@H](OC(C)(C)C)C(=O)O)N(S(C)(=O)=O)Cc2c(C)cccc2-3)cc1 the CC50 ([1]; Homo sapiens, MT4) was 17000 nM, the EC50 [3, 9] was 670 nM and the EC50 [2, 9] was 8 nM.
For Cc1c(-c2ccc(F)cc2)c([C@H](OC(C)(C)C)C(=O)O)c(C)c2c1-c1c(F)cccc1CN2S(C)(=O)=O, the CC50 ([1]; Homo sapiens, MT4) was 32000 nM, the EC50 [3, 9] was 860 nM and the EC50 [2, 9] was 12 nM.
Molecule Cc1c(-c2ccc3c(c2)NCCO3)c([C@H](OC(C)(C)C)C(=O)O)c(C)c2c1-c1c(F)cccc1CN2S(C)(=O)=O has a CC50 ([1]; Homo sapiens, MT4) of 55000 nM, an EC50 [3, 9] of 150 nM and an EC50 [2, 9] of 10 nM.
For Cc1ccc(-c2c(C)c3c(c(C)c2[C@H](OC(C)(C)C)C(=O)O)N(S(C)(=O)=O)Cc2cc(C(F)(F)F)ccc2-3)cc1, the CC50 ([1]; Homo sapiens, MT4) was 10000 nM, the EC50 [3, 9] was 460 nM and the EC50 [2, 9] was 3 nM.
Molecule Cc1ccc(-c2c(C)c3c(c(C)c2[C@H](OC(C)(C)C)C(=O)O)N(S(C)(=O)=O)Cc2cccc(C)c2-3)cc1 has a CC50 ([1]; Homo sapiens, MT4) of 17000 nM, an EC50 [3, 9] of 600 nM and an EC50 [2, 9] of 20 nM.
With Cc1c(-c2ccc3c(c2)NCCC3)c([C@H](OC(C)(C)C)C(=O)O)c(C)c2c1-c1c(F)cccc1CN2S(C)(=O)=O the CC50 ([1]; Homo sapiens, MT4) was 30000 nM, the EC50 [3, 9] was 99 nM and the EC50 [2, 9] was 4.3 nM.
Cc1ccc(-c2c(C)c3c(c(C)c2[C@H](OC(C)(C)C)C(=O)O)N(S(C)(=O)=O)Cc2cc(F)ccc2-3)cc1 gave a CC50 ([1]; Homo sapiens, MT4) of 19000 nM, an EC50 [3, 9] of 360 nM and an EC50 [2, 9] of 5.7 nM.
Molecule Cc1nc2ccccc2c(-c2ccc3c4c(ccnc24)CCO3)c1[C@H](OC(C)(C)C)C(=O)O [BI-224436] has a CC50 ([1]; Homo sapiens, MT4) greater than 50000 nM, an EC50 [3, 9] greater than 5000 nM and an EC50 [2, 9] of 20 nM.
